Experimental data: US20090325923A1, “NEW METHOD FOR THE TREATMENT OF INFLAMMATORY DISEASES” (TOPOTARGET SWITZERLAND SA, priority 2006, published 2009)

Legend:
RAW264.7 cell line [1] = experiment: LPS-stimulated TNF secretion by ELISA in RAW264.7 cells; assay type: cell-based, mouse
Description: (§1) The murine RAW264.7 cell line was stimulated with LPS in the presence of FK866. TNF protein concentrations were determined by ELISA (above panel) while mRNA levels were determined by RT-PCR (below panel).
(§2) (A) The mouse macrophage cell line RAW264.7 was cultured overnight with increasing doses of FK866, and then stimulated with LPS for 2 h. The culture supernatants were tested for TNF content by ELISA and intracellular NAD levels were measured by an enzymatic assay.
(§3) (B) RAW264.7 cells were cultured overnight in the presence of FK866 and the intracellular pool of NAD was restored by co-incubation of the cells with nicotinic acid (NA). Cells were then stimulated with LPS for 2 h and the culture supernatant was tested for TNF content by ELISA.
(§4) (C) RAW264.7 cells were cultured overnight in the presence of FK866 and NAD levels were maintained by culturing the cells in the presence of extracellular NAD. Cells were then stimulated with LPS for 2 h and the culture supernatant was tested for TNF content by ELISA.
(§5) This example illustrates that FK866 inhibits TNFα secretion at a posttranscriptional level. The murine RAW 264.7 cell line was incubated in the presence of graded doses of FK866, stimulated with microbial products, and levels of TNFα released in the supernatant evaluated by ELISA.
as §2, with “This example illustrates the correlation between proinflammatory cytokine secretion and NAD levels in the cell.” for “(A)”
as §3, with “In another experiment,” for “(B)”, “nicotinic acid. Nicotinic” for “nicotinic”, “is a precursor of NAD, but its transformation into NAD is not dependent upon NMPRT and is thus not inhibited by FK866.” for “(NA).”
(§6) In another experiment, RAW264.7 cells were cultured overnight in the presence of FK866 and NAD levels were maintained by culturing the cells in the presence: of extra-cellular NAD. Cells were then stimulated with LPS for 2 h and the culture supernatant was tested for TNF content by ELISA.

RAW264.7 cell line [2] = experiment: Intracellular NAD by enzymatic assay in RAW264.7 cells; assay type: cell-based, mouse; details: RAW264.7, overnight increasing doses of FK866, LPS 2 h
Description: as §2, §3, §4
as §2, with “This example illustrates the correlation between proinflammatory cytokine secretion and NAD levels in the cell.” for “(A)”
as §3, with “In another experiment,” for “(B)”, “nicotinic acid. Nicotinic” for “nicotinic”, “is a precursor of NAD, but its transformation into NAD is not dependent upon NMPRT and is thus not inhibited by FK866.” for “(NA).”
as §6

[3] = system: mouse peritoneal macrophages; experiment: LPS-stimulated TNF and IL-6 secretion by ELISA in peritoneal macrophages; assay type: cell-based; details: overnight increasing doses of FK866, LPS 6 h
Description: (§7) Human monocytic cell line THP-1, human peripheral blood mononuclear cells (PBMC), human monocyte-derived dendritic cells, or mouse peritoneal macrophages were isolated and cultured overnight with increasing doses of FK866, and then stimulated with LPS for 6 h. The culture supernatants were tested for TNF and IL-6 content by ELISA
as §7, with “This example describes the inhibition of pro-inflammatory cytokines production by the competitive small molecular weight compound inhibitor of NMPRT, ((E)-N-[4-(1-benzoylpiperidin-4-yl)butyl]-3-(pyridin-3-yl)acrylamide, designated FK866). Human” for “Human”, “ELISA.” for “ELISA”

[4] = system: human peripheral blood mononuclear cells (PBMC); experiment: LPS-stimulated TNF and IL-6 secretion by ELISA in PBMC; assay type: cell-based; details: overnight increasing doses of FK866, LPS 6 h
Description: as §7
as §7, with “This example describes the inhibition of pro-inflammatory cytokines production by the competitive small molecular weight compound inhibitor of NMPRT, ((E)-N-[4-(1-benzoylpiperidin-4-yl)butyl]-3-(pyridin-3-yl)acrylamide, designated FK866). Human” for “Human”, “ELISA.” for “ELISA”

[5] = system: collagen-induced arthritis; experiment: Collagen-induced arthritis (CIA) mouse model; assay type: in vivo
RAW264.7 cell line [6] = experiment: TNFα mRNA levels by RT-PCR in RAW264.7 cells; assay type: cell-based, mouse; details: RAW 264.7, LPS in the presence of FK866, RT-PCR
Description: as §1, §5

[7] = system: human monocyte-derived dendritic cells; experiment: Annexin-V and propidium iodide survival assay in dendritic cells; assay type: cell-based; details: overnight increasing doses of FK866, LPS 6 h, vs untreated cells
Description: (B) Human monocyte-derived dendritic cells were isolated and cultured overnight with increasing doses of FK866, and then stimulated with LPS for 6 h. At the end of the culture, the survival of cells was measured by Annexin-V and propidium iodide staining.
In another experiment, human monocyte-derived dendritic cells were isolated and cultured overnight with increasing doses of FK866, and then stimulated with LPS for 6 h.

[8] = 10 mg/kg ip twice daily, 14 days, 0-3 histological score, vs placebo
[9] = CIA mice, end of the experiment

SMILES: O=C(/C=C/c1cccnc1)NCCCCC1CCN(C(=O)c2ccccc2)CC1 [FK866, (E)-N-[4-(1-benzoylpiperidin-4-yl)butyl]-3-(pyridine-3-yl)-acrylamide]
- TNFα secretion (RAW264.7 cell line [1]; RAW 264.7, graded doses of FK866, stimulated with LPS, ELISA): strongly inhibited
- TNF production (RAW264.7 cell line [1]; RAW264.7, overnight increasing doses of FK866, LPS 2 h): inhibition of TNF production
- intracellular NAD levels (RAW264.7 cell line [2]): inhibition of intracellular NAD levels
- cytokine secretion (TNF and IL-6) [3]: inhibited cytokine secretion in a dose-dependent fashion
- cytokine secretion (TNF and IL-6) [4]: inhibited cytokine secretion in a dose-dependent fashion
- inflammatory infiltrate in knee joint sections [5, 8]: statistically significant decrease
- synovial hyperplasia in knee joint sections [5, 8]: statistically significant decrease
- histology of knees and paws ([5]; 10 mg/kg ip twice daily, 14 days, vs placebo): much less inflammation
- paw inflammation ([5]; 10 mg/kg ip twice daily, after 2 weeks of treatment, vs placebo): minimal signs of inflammation
- effect on established CIA (dose-response) ([5]; 2, 5 or 10 mg/kg ip twice daily for 15 days): marked protective dose-dependent effect
- IL-1β in paw tissue extracts [5, 9]: significantly reduced
- IL-6 in paw tissue extracts [5, 9]: significantly reduced
- IL-10 secretion in paw tissue extracts [5, 9]: remained unchanged
- MCP-1 in paw tissue extracts [5, 9]: decreased
- symptoms of arthritis (clinical score) ([5]; DBA/1 mice, 10 mg/kg ip twice daily for 15 days from clinical score ≧1): ameliorates the symptoms of arthritis
- severity of arthritis in CIA mice ([5]; FK866 10 mg/kg ip twice daily or etanercept 15 mg/kg every three days, over 15 days): activity similar to etanercept
- time until beneficial effect apparent after commencement of treatment ([5]; established CIA): ≤ 10 days
- dose of maximal therapeutic effect on CIA ([5]; ip twice daily for 15 days): 10 mg/kg
- Serum amyloid A protein (SAA) levels ([5]; sera of CIA mice at day 14, ELISA, vs placebo): decreased
- TNFα mRNA levels (RAW264.7 cell line [6]): did not significantly affect
- survival of cells (Annexin-V and propidium iodide staining) [7]: no difference in survival
